One substance from patent US10738097B2, “Interferon-beta analog peptide” (priority 2017, dated 2020) can be followed below.

Format in all cases: in vivo, mouse
Test [1] relates to tumor necrosis factor-alpha (TNFα). The test is described as follows: Plasma TNFα of EAE mice, ELISA. The note with it: 21 days after EAE induction. The protocol: (§1) Moreover, after 21 days of EAE induction, mice were euthanized and their blood was obtained via cardiac puncture and plasma was prepared. Expression levels of tumor necrosis factor-alpha (TNFα) and interleukin 1β (IL1β) as circulating inflammatory biomarkers were measured in the plasma using quantitative enzyme-linked immunosorbent assay (ELISA) kits.

The subject of a further test is IL-17 positive cells. The test is described as follows: IL-17 positive cells in cerebral cortex of EAE mice. The following applies: 10 and 20 mg/kg, particularly 20 mg/kg, day 21. As to the method: (§2) Furthermore, brain inflammatory response after IFNβ analog peptide treatment as the IFNβ analog peptide was evaluated by measuring the number of IL-17 positive cells, CD11b positive cells, and CD45 positive cells. IL-17 is the most important pro-inflammatory cytokine produced by T-helper cells, CD11b is an activated macrophages and microglia marker, and CD45 is a general leukocytes marker.
(§3) After 21 days of EAE induction, mice were euthanized and were transcardially perfused with PBS. Then, the brains were dissected; cerebral cortex was isolated and snap-frozen in liquid nitrogen.

Another test concerns CD45 positive cells. The test is described as follows: CD45 positive cells in cerebral cortex of EAE mice. The note with it: 10 and 20 mg/kg, particularly 20 mg/kg, day 21. The protocol: as §2, §3
The subject of test [2] is matrix metalloproteinase 2 (MMP2). The test is described as follows: MMP2 gene expression in brain tissue of EAE mice, quantitative real-time PCR. The following applies: 20 mg/kg. As to the method: (§4) In this example, effects of the IFNβ analog peptide as the IFNβ analog peptide on the expression of some related inflammations mediators such as matrix metalloproteinase 2 (MMP2) and matrix metalloproteinase 9 (MMP9) were studied using quantitative real-time polymerase chain reaction (PCR).
(§5) The EAE mice were treated with PBS as the vehicle group, and dosage of the IFNβ analog peptide and IFNβ was 20 mg/kg in IFNβ analog peptide-treated mice and IFNβ-treated mice groups. After that RNA of the cells was extracted and their cDNA was synthesized.
In general terms: Quantitative PCR measures a nucleic acid by following its amplification.

Another test relates to EAE-induced C57BL/6 mice. The test is described as follows: Clinical score in MOG-induced experimental autoimmune encephalomyelitis (EAE). The following applies: IFNβ analog peptide = SEQ ID No. 1. The protocol:
In this example, therapeutic effects of the IFNβ analog peptide with SEQ ID No. 1 on the development of progressive experimental autoimmune encephalomyelitis (EAE) were studied. At first, EAE was induced in 8 weeks old C57BL/6 male mice with a weight between 20 grams and 25 grams. In order to induce EAE, mice were anesthetized with isoflurane and subcutaneously injected with 100 μl of MOG (myelin oligodendrocyte glycoprotein) with a concentration of about 2.5 g/l suspended in 100 μl complete Freund's adjuvant (CFA) into the hind flank. Mice were also intraperitoneally injected with 400 ng of pertussis toxin in 200 μl of phosphate buffered saline (PBS). A second, identical injection of pertussis toxin was given two days following the first immunization. Injections were distributed over four spots, for example about 100 μl per site across the flank areas. […]
After that, in order to conduct clinical evaluation, mice of the experimental groups were blinded scored as follows: score 0 for no overt signs of disease, score 1 for limp tail, score 2 for limp tail and hind limb weakness, score 3 for partial hind limb paralysis of one side (hemiparesis) or both sides (paraparesis), score 4 for complete hind limb paralysis of one side (hemiplegia) or both sides (paraplegia), score 5 for moribund state. The day of immunization was considered as EAE day 0 and clinical behavior of mice was scored daily. […]

Another test relates to interleukin 1β (IL1β). The experiment in a line: Plasma IL1β of EAE mice, ELISA. The note with it: 21 days after EAE induction. The protocol: as §1
(In an ELISA, binding on a coated surface is turned into a signal by an enzyme label.)

In test [3] the test system is matrix metalloproteinase 9 (MMP9). The experiment in a line: MMP9 gene expression in brain tissue of EAE mice, quantitative real-time PCR. The note with it: 20 mg/kg. As to the method:
as §4, §5

In a further test the test system is CD11b positive cells. The test is described as follows: CD11b positive cells in cerebral cortex of EAE mice. The note with it: 10 and 20 mg/kg, particularly 20 mg/kg, day 21. As to the method:
as §2, §3

Setting [4] is: P<0.05, SEQ ID of peptide not stated in Example 6.

For “IFNβ: Interferon-beta, first-line treatment for relapsing-remitting multiple sclerosis; comparator”, the “Reduction of TNFα, IFNβ versus IFNβ analog peptide” value in test [1] was “reduction of these inflammation mediators was more in IFNβ-treated mice”. For the same substance, the “Plasma level of TNFα compared to the vehicle group” value in test [1] (P-value<0.05) is reported as “significant decrease”. Further, in the test with IL-17 positive cells, the “Percentage of IL-17 positive cells in the cerebral cortex” value is on record as “considerably decreased”. The “Percentage of CD45 positive cells in the cerebral cortex” value in the test on CD45 positive cells is “considerably decreased”. For the same substance, the “Reduction of MMP2, IFNβ versus IFNβ analog peptide” value in test [2] is “reduction of these inflammation mediators was more in IFNβ-treated mice”. The “MMP2 gene expression fold change in the brain tissue compared to the vehicle group” value in test [2] (setting [4]) is “significant decrease”. For the same substance, in the test on EAE-induced C57BL/6 mice (20 mg/kg versus 10 mg/kg), the “Effect of raising the dose on EAE clinical symptoms” value is “improved disease protection”. The “Mean clinical score (AUC) versus vehicle group and EAE group” value in the test with EAE-induced C57BL/6 mice (10 and 20 mg/kg injected on day 14 of EAE induction) was “significant reduction in the clinical score”. Besides, the “Reduction of IL1β, IFNβ versus IFNβ analog peptide” value in the test on interleukin 1β (IL1β) was “reduction of these inflammation mediators was more in IFNβ-treated mice”. Also, in the test with interleukin 1β (IL1β) (P-value<0.05), the “Plasma level of IL1β compared to the vehicle group” value is given as “significant decrease”. For the same substance, the “Reduction of MMP9, IFNβ versus IFNβ analog peptide” value in test [3] was “reduction of these inflammation mediators was more in IFNβ-treated mice”. In addition, the “MMP9 gene expression fold change in the brain tissue compared to the vehicle group” value in test [3] (setting [4]) is recorded as “significant decrease”. Further, the “Percentage of CD11b positive cells in the cerebral cortex” value in the test with CD11b positive cells is listed as “considerably decreased”.
